This series can be described thus: Release of nicotine and vanillin from devices in artificial saliva. In kind it is physicochemical. Particulars: device with 50 w-% PVA / 50 w-% PLA, ca. 20 mg. The protocol: Three devices of each polymer matrix formulation were chosen for drug release experiments. Prior to the experiments, the dimensions and weight of the capsules were recorded. In the drug release experiments, the capsules were immersed in 2 mL of artificial saliva, which itself consists of a solution of 16.8 mM Na2HPO4, 1.4 mM KH2PO4, and 137 mM NaCl salts dissolved in purified water at pH 6.75. The solution was kept at 37° C. and under constant stirring. Once a day, 150 μL of solution was withdrawn from each sample to measure the amount of released drug in a high-performance liquid chromatography apparatus (HPLC). An equal amount of solution was added after each withdrawal to keep the total volume constant. The experiment was ceased between 35 and 42 days, due to devices turning red resulting from paracetamol degradation, or when all the drug was deemed to be released.
The release of nicotine and vanillin was measured similarly as in Examples 1 and 2.

As for `CN1CCCC1c1cccnc1` (stereo not drawn) [Nicotine, nicotine], the “loading degree in device” value amounted to 0.04 w-%. Where the note is “day 2”, the “cumulative release from device” value is 6 µg. Further, the “cumulative release from device” value (day 14) was “ca. 7 μg”.

Consider `COc1cc(C=O)ccc1O` [Vanillin, vanillin], for which the “loading degree in device” value was determined as 0.32 w-%. Where the note is “day 4”, the “cumulative release from device” value was “ca. 50 μg”. For the same compound, the “cumulative release from device” value (day 7) amounted to 65 µg.

The record behind these values is patent publication US20220233435A1 (priority 2019, published 2022).
